Assay results as given in patent US7557144B1, “Modulation of protein expression using carbocyclic aryl alkenoic acid derivatives” (The Johns Hopkins University, priority 2000, dated 2009).

Tests used:
Hsc70 = Hsc70 immunoblot of IB3-1 whole cell lysates; format: cell-based, human; settings: IB3-1 cells
Experimental: (§1) 3. Immunoblot analysis. Whole cell lysates were prepared by solubilization with 2% SDS at 95° C. Protein concentration in the lysates was determined using the Bio-Rad DC assay reagents with bovine plasma g-globulin as a standard (Bio-Rad Laboratories, Hercules, Calif.). Equal amounts of protein was resolved on 5, 7, 8, or 9% SDS-polyacrylamide gels. Proteins were transferred to nitrocellulose, and immunodetection was performed as previously described (25). Nonspecific binding was blocked by incubation of the nitrocellulose with 2% gelatin or 10% nonfat day milk. Primary antisera and secondary antibodies were applied in buffer containing 0.4% BSA overnight at 4° C. and for 1 h at room temperature, respectively. Detection of immunoreactivity was performed with the enhanced chemiluminescence reagent (ECL, Amer-sham) and fluorography. Recombinant bovine Hsc70 ([…]) was purchased from Stressgen Biotechnologies for use in constructing a standard curve of Hsc70 immunoreactivity. Immunoblots containing the bovine Hsc70 were probed with the Hsc70-specific polyclonal antiserum.

Hsc70 mRNA = assay: RNase protection assay of Hsc70 mRNA in IB3-1 cells; format: cell-based, human
Source text: 4. RNase protection. An Hsc70-specific probe for RNase protec-tion was constructed by isolation a 500-bp EcoR I fragment from American Type Culture Collection (ATCC) plasmid 77659 (ATCC, Manassas, Va.) and ligating this fragment into the EcoR I site of pSK(2) (Bluescript, Stratagene, La Jolla, Calif.). The resulting plasmid was sequenced in the Genetics Core Facility at the Johns Hopkins Hospital and found to be identical to sequences in exons 8 and 9 of the human Hsc70 sequence, with sequencing using the T3 primer and T7 primer leading to sense and antisense sequence, respectively. Hybridization probes were synthesized using a Maxiscript T7 kit (Ambion, Austin, Tex.) and [α^32 P]UTP (Amersham or DuPont NEN, Boston, Mass.) according to the Maxiscript protocol. Templates for internal control hybridizations, pTRI-18S and pTRI-cyclophilin A, were purchased from Ambion, and probes were similarly synthesized using the Maxiscript T7 kit. Probes were isolated by acid phenol-chloroform (Ambion) extraction, separated from unincorporated nucleotide by gel filtration (Sephadex G25 RNAspin column, Boehringer-Mannheim), and ethanol-acetate precipitated before resuspension in hybridization buffer. The concentration of radioactivity in the synthesized probes was determined by liquid scintillation.
RNase protection experiments were performed using the Direct Protect RNase protection assay kit (Ambion) according to the manufacturer's protocol. IB3-1 cell lysates were pre-pared in Direct Protect lysis buffer according to the manufacturer's protocol after incubation under the appropriate conditions for 48 h. Probe (50-70 and 5-10 thousands of counts/min for Hsc70 and control, respectively) and cellular RNA were hybridized overnight at 37° C. and digested with RNase cocktail. Protected fragments were resolved by electrophoresis on 5% acrylamide-8 M urea gels and detected by fluorography. Hsc70 mRNA concentration is expressed relative to control (18S or cyclophilin A) hybridization by densitometry (see Densitometric analysis). Results for hybridization of Hsc70 mRNA relative to the two control species were similar and were therefore grouped for data analysis.
FIGS. 3A-B are explained in more detailed as follows. Dose-dependent downregulation of Hsc70 mRNA expression by 4-PBA. A: IB3-1 cells were treated as for FIGS. 1 and 2. Hsc70 mRNA and 18S rRNA (as an internal reference) were measured by Direct Protect RNase protection as described under General Comments. […] P values (shown above respective error bars) were determined by 1-way ANOVA in comparison with control.
FIG. 6 is explained in more detail as follows. […] P values (shown above respective error bars) were determined by 1-way ANOVA in comparison with control.

ΔF508-CFTR/Hsc70 complex = assay: Immunoprecipitation of Hsc70 and coimmunoprecipitation of CFTR from treated IB3-1 cells; format: cell-based, human; settings: 2 days
CFTR [1] = assay: CFTR immunoblot with anti-CFTR antibody 181 in IB3-1 cells; format: cell-based, human; settings: increasing concentrations of 4-phenylbutyrate (FIG. 14)
Experimental: as §1
Control cells at 37° C. show band B CFTR, but virtually undetectable band C CFTR. These cells as expected show very little Hsp70, the heat shock inducible chaperone. At 27° C., a lower temperature, there is very little Hsp70 as expected, but as expected, there has been induction of band C CFTR.

CFTR [2] = assay: Nasal potential difference in CF patients; format: in vivo, human
Source text: Standard methods for detecting and quantifying electrical potentials from nasal epithelia have been reported. See e.g., Zeitlin, P. L. (2000) in Mol. Therapy 1: 1; Noone, P. G. et al. (2000) in Mol. Therapy 1: 105-114; Caplen, J. J. et al. (1995) Nat. Med. 1: 39-46; Middleton, P. G. (1994) in Eur. Respir. 7: 2050-2056; the disclosures of which are hereby incorporated by reference.
This is consistent with the presence of a functional CFTR in the nasal epithelial cell surface.
FIG. 16D the same individual as in […] 18 days on 4-phenylbutyrate.

CFTR [3] = settings: homozygous ΔF508 patients taking the drug for 1 week; Rubenstein et al. 1998; cited from earlier work
[4] = parameters: fraction of administered 4-PBA excreted as PAG in the urine: unit not given here; settings: cited from earlier work
[5] = administered 4-PBA; cited from earlier work
[6] = test system: CF airway epithelial cells; settings: Rubenstein et al. 1997; cited from earlier work
[7] = increasing concentrations of 4-PBA

## O=C(O)CCCc1ccccc1 [4-PBA, 4-phenylbutyric acid]
Hsc70; 4-PBA 2 days, densitometry
  decrease in Hsc70 immunoreactivity: ~50%
Hsc70; increasing concentrations of 4-PBA, 2 days
  total Hsc70 immunoreactivity in whole cell lysates: declined in a dose-dependent fashion
Hsc70 mRNA; 4-PBA treatment, relative to 18S rRNA
  steady-state Hsc70 mRNA levels: concentration-dependent decrease
Hsc70 mRNA; continuous exposure to 5 mM 4-PBA
  maximum decrease of Hsc70 mRNA, of control expression: ~50%
ΔF508-CFTR/Hsc70 complex
  4-PBA concentration at which CFTR was undetectable in the immunoprecipitates: > 1 mM
ΔF508-CFTR/Hsc70 complex; [7]
  immunoprecipitable Hsc70: decreased amounts
  immunoreactive CFTR recovered in complex with Hsc70: less immunoreactive CFTR was recovered
CFTR [1]
  band C CFTR: promotes appearance of band C CFTR
CFTR [2]; CF patient (deltaF508 homozygous), 20 gm daily for 7 days
  nasal potential difference response to low chloride/isoproterenol: induce chloride transport
CFTR [2]; same CF patient after 18 days on 4-phenylbutyrate
  nasal potential difference response to low chloride/isoproterenol: continues to sustain chloride transport
CFTR [3]
  chloride transport in nasal potential difference measurements: increase chloride transport
[4]; in vivo
  fraction of administered 4-PBA excreted as PAG in the urine: Ninety
[4]; then conjugated with glutamine to phenacetylglutamine, excreted in urine (ref. 6)
  in vivo metabolic conversion: rapidly and completely converted by β-oxidation to phenylacetate
[5]
  toxicity: little toxicity beyond a slightly bitter taste, mild stomach discomfort or mild peripheral edema if severely anemic
[6]
  cAMP-mediated chloride transport: promote functional correction of cAMP-medicated chloride transport
